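All cell lines were grown in 96-well plates and treated with compound for 48 hours. GI50 = concentration required for 50% inhibition of growth.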 Activity calls are given as the source filed them. Rule as the data show it: active = GI50 up to about 1.1 µM and inactive = higher.
Legend:
Test in all cases: growth of human tumour cells (NCI), 48 h
DMS-114 = system: DMS-114
RXF 631 = system: RXF 631
M19-MEL = system: M19-MEL
XF498 = system: XF498
DLD-1 = system: DLD-1
KM-20L2 = system: KM-20L2
SNB-78 = system: SNB-78
DMS-273 = system: DMS-273

SMILES | GI50 (DMS-114) | GI50 (RXF 631) | GI50 (M19-MEL) | GI50 (XF498) | GI50 (DLD-1) | GI50 (KM-20L2) | GI50 (SNB-78) | GI50 (DMS-273)
CCCCCCCCCCCCCC(=O)NCO | > 100 µM (inactive) | > 100 µM (inactive) | > 100 µM (inactive) | > 100 µM (inactive) | > 100 µM (inactive) | > 100 µM (inactive) | > 100 µM (inactive) | 
CC(=O)NNc1nc(C)c(C(=O)/C=C/c2ccc(/C=C/C(=O)c3sc(NNC(C)=O)nc3C)cc2)s1 | > 100 µM (inactive) | > 100 µM (inactive) | > 100 µM (inactive) | > 100 µM (inactive) | > 100 µM (inactive) |  | > 100 µM (inactive) | > 100 µM (inactive)
C/C(=N\NC(=S)N1CC2CCC(CC2)C1)c1nccs1 | < 0.0148 µM (active) | 0.518 µM (active) | 0.288 µM (active) | 2.3 µM (inactive) | 0.0423 µM (active) | < 0.01 µM (active) | 10.3 µM (inactive) | 0.127 µM (active)
CC(C)C(=O)NC(=S)Nc1ccc([N+](=O)[O-])cc1C#N | > 100 µM (inactive) | 99.1 µM (inactive) | > 100 µM (inactive) | > 100 µM (inactive) | > 100 µM (inactive) | > 100 µM (inactive) | > 100 µM (inactive) | > 100 µM (inactive)
C#C[C@@H](CCCC)OC(=O)N[C@H](C)c1ccccc1 | 25.1 µM (inactive) | 45.6 µM (inactive) | 38.5 µM (inactive) | 66.8 µM (inactive) | 59.4 µM (inactive) | 51.8 µM (inactive) | 94.6 µM (inactive) | 37.2 µM (inactive)
Cc1c(Cl)ccc2c1NC(=O)C2(O)C(C(=O)c1ccccc1)c1ccccc1 (stereo unspecified) | 21.9 µM (inactive) | 62.2 µM (inactive) | 14.7 µM (inactive) | 32.7 µM (inactive) | 83.9 µM (inactive) | 46 µM (inactive) | > 100 µM (inactive) | 51.5 µM (inactive)
O=C1/C(=C/c2ccc(Cl)cc2)COc2ccc(Br)cc21 | > 100 µM (inactive) | > 100 µM (inactive) | > 100 µM (inactive) | 69 µM (inactive) | > 100 µM (inactive) | > 100 µM (inactive) | > 100 µM (inactive) | > 100 µM (inactive)
CCCCCCCCCCCCCC(=O)OCC(C[As](=O)(O)O)OC(=O)CCCCCCCCCCCCC (stereo unspecified) | 74 µM (inactive) | > 100 µM (inactive) |  | > 100 µM (inactive) | > 100 µM (inactive) | > 100 µM (inactive) | > 100 µM (inactive) | > 100 µM (inactive)
COc1c(C)n(CCO)ccc1=O | > 100 µM (inactive) | > 100 µM (inactive) | > 100 µM (inactive) | > 100 µM (inactive) | > 100 µM (inactive) | > 100 µM (inactive) | > 100 µM (inactive) | > 100 µM (inactive)
N#CCC(=O)Nc1cccc(C(F)(F)F)c1 |  | > 100 µM (inactive) | > 100 µM (inactive) | > 100 µM (inactive) | > 100 µM (inactive) | > 100 µM (inactive) | > 100 µM (inactive) | > 100 µM (inactive)

From ChEMBL document CHEMBL1201862, “PubChem BioAssay data set” (2004)
